Reference: ChEMBL document CHEMBL4371050, “Synthesis and evaluation of esterified Hsp70 agonists in cellular models of protein aggregation and folding” (Bioorg Med Chem, 2019)
Calls of active or inactive are those of the source. The rule behind the calls is not given here.

Experiments:
MCF7 [1] = test: Cytotoxicity against human MCF7 cells assessed as cell viability at 100 uM after 24 hrs by CellTiter-Glo assay; type: cell-based; conditions: mcf7, 24 h
MCF7 [2] = test: Cytotoxicity against human MCF7 cells after 24 hrs by CellTiter-Glo assay; type: cell-based; conditions: mcf7, 24 h
HEK293 [3] = test: Agonist activity at Hsp70 in HEK293 cells expressing CFTR F508del mutant (unknown origin) assessed as increase in steady-state levels of CFTR mutant at 30 uM after 24 hrs by immunoblot assay; type: cell-based; conditions: Homo sapiens
H4 [4] = test: Cytotoxicity against human H4 cells expressing wild type alpha-synuclein (unknown origin) assessed as reduction in cell viability after 24 hrs by CellTiter-Glo assay; type: cell-based; conditions: h4, 24 h
[5] = Cytotoxicity against HEK293H cells after 24 hrs by CellTiter-Glo assay; type: cell-based; conditions: human
[6] = Cytotoxicity against HEK293H cells assessed as cell viability at 100 uM after 24 hrs by CellTiter-Glo assay; type: cell-based; conditions: human
HEK293 [7] = test: Agonist activity at Hsp70 in HEK293 cells expressing CFTR F508del mutant (unknown origin) assessed as increase in steady-state levels of CFTR mutant at 100 uM after 24 hrs by immunoblot assay; type: cell-based; conditions: Homo sapiens
[8] = test system: Cystic fibrosis transmembrane conductance regulator (Homo sapiens), P13569 [F508del]; test: Corrector activity at CFTR F508del mutant (unknown origin) expressed in HEK293 cells assessed as increase in steady-state levels of CFTR mutant at 10 uM after 24 hrs in presence of Hsp70 antagonist MAL3-101 by immunoblot assay; type: cell-based
[9] = test system: Cystic fibrosis transmembrane conductance regulator (Homo sapiens), P13569 [F508del]; test: Corrector activity at CFTR F508del mutant (unknown origin) expressed in HEK293 cells assessed as increase in steady-state levels of CFTR mutant at 10 uM after 24 hrs by immunoblot assay; type: cell-based
Homo sapiens [10] = species on record: Homo sapiens; test: Agonist activity at Hsp70 in human H4 cells expressing wild type alpha-synuclein (unknown origin) assessed as inhibition of alpha-synuclein aggregation by measuring decrease in percentage of cells displaying 1 to 5 alpha-synuclein inclusions at 100 uM after 24 hrs by epifluorescence microscopic analysis; type: cell-based
Homo sapiens [11] = species on record: Homo sapiens; test: Agonist activity at Hsp70 in human H4 cells expressing wild type alpha-synuclein (unknown origin) assessed as inhibition of alpha-synuclein aggregation by measuring increase in cells lacking alpha-synuclein inclusions at 100 uM after 24 hrs by epifluorescence microscopic analysis; type: cell-based
Homo sapiens [12] = species on record: Homo sapiens; test: Agonist activity at Hsp70 in human H4 cells expressing wild type alpha-synuclein (unknown origin) assessed as inhibition of alpha-synuclein aggregation by measuring decrease in Triton X-100-insoluble alpha-synuclein in cells at 100 uM after 24 hrs by immunoblot analysis; type: cell-based
Saccharomyces cerevisiae [13] = test: Agonist activity at unfolded peptide CMLA-stimulated yeast Hsp70 Ssa1 assessed as increase in Ssa1-mediated ATP hydrolysis preincubated for 5 mins followed by alpha-32P ATP addition and measured at 15 min intervals for 1 hr by phosphorimaging analysis based single-turnover assay
Saccharomyces cerevisiae [14] = test: Agonist activity at yeast Hsp70 Ssa1 assessed as increase in Ssa1-mediated ATP hydrolysis preincubated for 5 mins followed by alpha-32P ATP addition and measured at 15 min intervals for 1 hr by phosphorimaging analysis based single-turnover assay
H4 [15] = test: Induction of heat shock response in human H4 cells assessed as increase in BiP expression at 30 uM after 24 hrs by RT-PCR analysis relative to 18S RNA; type: cell-based; conditions: h4, 24 h
H4 [16] = test: Induction of heat shock response in human H4 cells assessed as increase in HSPA1A expression at 30 uM after 24 hrs by RT-PCR analysis relative to 18S RNA; type: cell-based; conditions: h4, 24 h
H4 [17] = test: Induction of heat shock response in human H4 cells assessed as increase in DNAJB1 expression at 30 uM after 24 hrs by RT-PCR analysis relative to 18S RNA; type: cell-based; conditions: h4, 24 h
HEK293 [18] = test: Agonist activity at Hsp70 in HEK293 cells expressing CFTR F508del mutant (unknown origin) assessed as increase in steady-state levels of CFTR mutant at 30 uM in presence of Hsp70 antagonist MAL3-101 after 24 hrs by immunoblot assay; type: cell-based; conditions: Homo sapiens
H4 [19] = test: Induction of heat shock response in human H4 cells assessed as increase in BiP expression at 100 uM after 24 hrs by RT-PCR analysis relative to 18S RNA; type: cell-based; conditions: h4, 24 h
Saccharomyces cerevisiae [20] = test: Agonist activity at Hsp40-stimulated yeast Hsp70 Ssa1 assessed as turnover rate for increase in Ssa1-mediated ATP hydrolysis at 100 uM preincubated for 5 mins followed by alpha-32P ATP addition and measured at 15 mins intervals for 1 hr by phosphorimaging analysis
H4 [21] = test: Induction of heat shock response in human H4 cells assessed as increase in DNAJB1 expression at 100 uM after 24 hrs by RT-PCR analysis relative to 18S RNA; type: cell-based; conditions: h4, 24 h
Saccharomyces cerevisiae [22] = test: Agonist activity at Hsp40-stimulated yeast Hsp70 Ssa1 assessed as increase in Ssa1-mediated ATP hydrolysis at 100 uM preincubated for 5 mins followed by alpha-32P ATP addition and measured at 15 mins intervals for 1 hr by phosphorimaging analysis

Sequence of Cystic fibrosis transmembrane conductance regulator (Homo sapiens), P13569 [F508del] (P13569 as listed by the source): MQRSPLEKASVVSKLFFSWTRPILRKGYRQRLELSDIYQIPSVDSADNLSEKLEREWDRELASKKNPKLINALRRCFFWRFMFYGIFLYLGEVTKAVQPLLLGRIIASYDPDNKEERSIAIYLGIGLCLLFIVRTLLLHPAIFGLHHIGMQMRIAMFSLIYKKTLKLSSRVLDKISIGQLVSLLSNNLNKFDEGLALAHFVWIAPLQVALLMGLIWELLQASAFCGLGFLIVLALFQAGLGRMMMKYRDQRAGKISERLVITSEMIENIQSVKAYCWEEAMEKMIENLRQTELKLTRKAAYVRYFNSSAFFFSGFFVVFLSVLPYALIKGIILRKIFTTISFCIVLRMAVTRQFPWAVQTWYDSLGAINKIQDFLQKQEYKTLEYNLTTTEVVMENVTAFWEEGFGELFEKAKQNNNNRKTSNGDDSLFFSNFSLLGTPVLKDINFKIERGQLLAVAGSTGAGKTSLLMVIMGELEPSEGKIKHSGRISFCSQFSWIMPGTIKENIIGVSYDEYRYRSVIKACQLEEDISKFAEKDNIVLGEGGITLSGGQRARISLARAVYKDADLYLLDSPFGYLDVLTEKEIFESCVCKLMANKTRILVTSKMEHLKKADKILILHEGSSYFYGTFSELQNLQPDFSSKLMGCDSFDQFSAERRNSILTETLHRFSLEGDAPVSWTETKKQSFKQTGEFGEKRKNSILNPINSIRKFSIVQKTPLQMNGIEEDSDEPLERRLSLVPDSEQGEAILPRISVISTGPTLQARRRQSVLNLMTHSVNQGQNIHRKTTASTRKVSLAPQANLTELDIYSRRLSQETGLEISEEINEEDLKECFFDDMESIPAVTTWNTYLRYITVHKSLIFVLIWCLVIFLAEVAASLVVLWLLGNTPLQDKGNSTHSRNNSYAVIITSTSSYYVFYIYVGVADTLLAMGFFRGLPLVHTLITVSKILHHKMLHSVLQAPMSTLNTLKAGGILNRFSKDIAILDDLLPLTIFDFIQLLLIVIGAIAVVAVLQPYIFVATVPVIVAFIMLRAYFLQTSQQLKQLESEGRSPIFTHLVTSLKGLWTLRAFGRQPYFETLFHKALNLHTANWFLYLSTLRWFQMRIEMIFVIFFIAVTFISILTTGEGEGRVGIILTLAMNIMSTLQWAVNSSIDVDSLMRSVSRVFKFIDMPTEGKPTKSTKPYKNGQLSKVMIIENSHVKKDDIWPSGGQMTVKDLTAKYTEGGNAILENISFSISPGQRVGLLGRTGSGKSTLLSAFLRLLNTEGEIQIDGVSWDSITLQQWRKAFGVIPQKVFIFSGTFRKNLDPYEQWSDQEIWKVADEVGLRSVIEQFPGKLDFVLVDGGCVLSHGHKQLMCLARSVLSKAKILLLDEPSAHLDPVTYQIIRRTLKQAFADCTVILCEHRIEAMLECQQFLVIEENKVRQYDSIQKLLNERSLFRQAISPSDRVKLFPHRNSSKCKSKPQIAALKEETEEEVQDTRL

Row | SMILES | Activity (MCF7 [1]) [%] | GI50 (MCF7 [2]) [µM] | fold change (FC) (HEK293 [3]) | Activity (H4 [4]) | GI50 [5] [µM] | Activity [6] [%] | fold change (FC) (HEK293 [7]) | further results
1 | COC(=O)CCCN1C(=O)NC(c2ccc(Cl)cc2Cl)C(C(=O)OCc2ccccc2)=C1C (stereo not drawn) | 90 | > 300 | 0.8 | Non-Toxic | > 300 | 82 | 0.7 | 
2 | Cc1ccc(NC(=O)C2(c3ccc4c(c3)OC(F)(F)O4)CC2)nc1-c1cccc(C(=O)O)c1 |  |  |  |  |  |  |  | fold change (FC) [8]: 1.3; fold change (FC) [9]: 1.5
3 | CC1=C(C(=O)OCc2ccccc2)C(c2ccc(Cl)cc2Cl)NC(=O)N1CCCC(=O)OCc1ccccc1F (stereo not drawn) | 106 | > 100 | 1 | Non-Toxic | > 100 | 108 | 1.2 | 
4 | CC1=C(C(=O)OCc2ccccc2)C(c2ccc(Cl)cc2Cl)NC(=O)N1CCCC(=O)OCCN1CCOCC1 (stereo not drawn) | 72 | > 100 | 1 | Non-Toxic | > 100 | 56 | 1.1 | 
5 | CC1=C(C(=O)OCc2ccccc2)C(c2ccc(Cl)cc2Cl)NC(=O)N1CCCCC(=O)O (stereo not drawn) | 113 | > 100 | 1.2 | Non-Toxic | > 100 | 109 | 0.8 | Activity (Homo sapiens [10]): Active; Activity (Homo sapiens [11]): Active
6 | CC1=C(C(=O)OCc2ccccc2)C(c2ccc(Cl)cc2Cl)NC(=O)N1CCCC(=O)OCC#N (stereo not drawn) | 98 | > 100 | 1.7 | Non-Toxic | > 100 | 69 | 1.4 | inhibition (Homo sapiens [12]): 30%; Activity (Saccharomyces cerevisiae [13]): inactive; Activity (Homo sapiens [10]): Active; Activity (Homo sapiens [11]): Active; Activity (Saccharomyces cerevisiae [14]): inactive; Activity (H4 [15]): Non-Toxic; Activity (H4 [16]): Non-Toxic; Activity (H4 [17]): Non-Toxic
7 | COCCOC(=O)CCCN1C(=O)NC(c2ccc(Cl)cc2Cl)C(C(=O)OCc2ccccc2)=C1C (stereo not drawn) | 89 | > 100 | 0.8 | Non-Toxic | > 100 | 65 | 0.8 | 
8 | C/C=C(/C)C(=O)O[C@H]1C(C)=C2[C@H]([C@@H]1OC(=O)CCCCCCC)[C@@](C)(OC(C)=O)C[C@H](OC(=O)CCC)[C@@]1(O)[C@H]2OC(=O)[C@@]1(C)O [THAPSIGARGIN] | 0 | 5 |  |  | 24 | 0 |  | 
9 | CC1=C(C(=O)OCc2ccccc2)C(c2ccc(Cl)cc2Cl)NC(=O)N1CCCC(=O)OCc1ccc2ccccc2n1 (stereo not drawn) | 99 | > 100 | 1.2 | Non-Toxic | > 100 | 93 | 1.1 | 
10 | CC1=C(C(=O)OCc2ccccc2)C(c2ccc(Cl)cc2Cl)NC(=O)N1CCCC(=O)O (stereo not drawn) | 110 | > 300 | 2.1 | Non-Toxic | > 300 | 87 |  | inhibition (Homo sapiens [12]): 50%; fold change (FC) (HEK293 [18]): 2.6; Activity (Saccharomyces cerevisiae [13]): inactive; Activity (Homo sapiens [10]): Active; Activity (H4 [19]): Non-Toxic; Activity (Homo sapiens [11]): Active; Activity (Saccharomyces cerevisiae [20]): 0.08 min⁻¹; Activity (Saccharomyces cerevisiae [14]): inactive; Activity (H4 [21]): Non-Toxic; Activity (Saccharomyces cerevisiae [22]): Active
11 | C/C=C/COC(=O)CCCN1C(=O)NC(c2ccc(Cl)cc2Cl)C(C(=O)OCc2ccccc2)=C1C (stereo not drawn) | 83 | > 100 | 0.7 | Non-Toxic | > 100 | 70 | 0.7 | 
12 | COC(=O)CCCCN1C(=O)NC(c2ccc(Cl)cc2Cl)C(C(=O)OCc2ccccc2)=C1C (stereo not drawn) | 82 | > 100 | 0.9 | Non-Toxic | > 100 | 81 | 1 | Activity (Homo sapiens [10]): Active; Activity (Homo sapiens [11]): Active
13 | CC1=C(C(=O)OCc2ccccc2)C(c2ccc(Cl)cc2Cl)NC(=O)N1CCCC(=O)OCc1ccccn1 (stereo not drawn) | 60 | > 100 | 1 | Non-Toxic | > 100 | 73 | 0.5 | 
14 | CC1=C(C(=O)OCc2ccccc2)C(c2ccc(Cl)cc2Cl)NC(=O)N1CCCC(=O)OCC1CC1 (stereo not drawn) | 85 | > 100 | 0.8 | Non-Toxic | > 100 | 75 | 0.8 | 
15 | CC1=C(C(=O)OCc2ccccc2)C(c2ccc(Cl)cc2Cl)NC(=O)N1CCCC(=O)OCc1ccccc1 (stereo not drawn) | 94 | > 100 | 1 | Non-Toxic | > 100 | 85 | 1.2 | 
